Assay results: BigSolDB 2.1

Cl.O=C(O)c1cn(-c2ccc(F)cc2)c2cc(N3CCNCC3)c(F)cc2c1=O
solubility (mole fraction)
Conditions	in DMF	in acetonitrile	in ethanol	in ethyl acetate	in isopropanol	in methanol	in n-butanol	in n-hexane
278.15 K	0.00136	0.00011	0.00019	0.0038	0.00047	0.00181	0.00148	0.00029
283.15 K	0.00148	0.00012	0.00022	0.00422	0.00059	0.00194	0.00162	0.00033
288.15 K	0.00164	0.00014	0.00025	0.00476	0.00072	0.00211	0.00179	0.00038
293.15 K	0.00183	0.00017	0.00029	0.00539	0.00083	0.00234	0.00202	0.00044
298.15 K	0.00205	0.0002	0.00033	0.00627	0.00098	0.00262	0.00224	0.00053
303.15 K	0.00232	0.00024	0.00037	0.00719	0.0011	0.00294	0.0025	0.00063
308.15 K	0.00259	0.00028	0.00043	0.00831	0.00123	0.0033	0.00281	0.00075
313.15 K	0.0029	0.00034	0.00049	0.00961	0.00134	0.00369	0.00312	0.00089
318.15 K	0.00324	0.0004	0.00056	0.0109	0.00147	0.00411	0.00344	0.00105
323.15 K	0.00359	0.00047	0.00064	0.0126	0.00161	0.00457	0.00379	0.0012
328.15 K	0.00397	0.00054	0.00072	0.0144	0.00172	0.00502	0.00419	0.00137
333.15 K	0.0044	0.00062	0.0008	0.0163	0.00185	0.00549	0.00463	0.00155
